Measurements: ChEMBL document CHEMBL1155109, “Discovery of 4-amino and 4-hydroxy-1-aroylindoles as potent tubulin polymerization inhibitors” (J Med Chem, 2008)

Tests used:
[1] = Growth inhibition of P-gp 170/MDR overexpressing human KB-vin10 cells after 72 hrs by methylene blue dye assay; assay type: functional; conditions: KB-VIN10, 72 h
NCI-H460 = test: Growth inhibition of human H460 cells after 72 hrs by methylene blue dye assay; assay type: functional, cell-based; conditions: NCI-H460, 72 h
MKN-45 = test: Growth inhibition of human MKN45 cells after 72 hrs by methylene blue dye assay; assay type: functional, cell-based; conditions: MKN-45, 72 h
KB = test: Growth inhibition of human KB cells after 72 hrs by methylene blue dye assay; assay type: functional, cell-based
[2] = Inhibition of microtubule associated protein rich tubulin polymerization
[3] = Displacement of [3H]colchicine from microtubule associated protein rich tubulin at 1 uM
[4] = Displacement of [3H]colchicine from microtubule associated protein rich tubulin at 5 uM

Structure (SMILES)	IC50 (NCI-H460) [nM]	IC50 (MKN-45) [nM]	IC50 (KB) [nM]	IC50 [2] [nM]	inhibition [3] [%]	inhibition [4] [%]	IC50 [1] [nM]
COc1ccc2c(c1)CC(C)N2C(=O)c1cc(OC)c(OC)c(OC)c1 (configuration not stated)	413	257	370	–	–	–	372
CCOC(=O)c1c(C)n(C(=O)c2cc(OC)c(OC)c(OC)c2)c2ccc(OC)cc12	> 5000	> 5000	> 5000	–	–	–	> 5000
COc1ccc2c(c1)cc(CO)n2C(=O)c1cc(OC)c(OC)c(OC)c1	> 5000	> 5000	> 5000	–	–	–	> 5000
COc1cc(C(=O)n2ccc3cc4c(cc32)OCO4)cc(OC)c1OC	559	521	575	–	–	–	587
COc1ccc2c(c1)cc(C(C#N)N(C)C)n2C(=O)c1cc(OC)c(OC)c(OC)c1 (configuration not stated)	> 5000	> 5000	> 5000	–	–	–	> 5000
COc1cc(C(=O)n2ccc3c([N+](=O)[O-])c(OC)ccc32)cc(OC)c1OC	> 5000	> 5000	> 5000	–	–	–	> 5000
COc1ccc2c(c1)c(CN(C)C)cn2C(=O)c1cc(OC)c(OC)c(OC)c1	> 5000	> 5000	> 5000	–	–	–	> 5000
COc1cc(C(=O)n2ccc3c(N)c(OC)ccc32)cc(OC)c1OC	5.4	3.1	1.2	900	71	93	2.4
COc1cc2c(c(OC)c1OC)-c1ccc(OC)c(=O)cc1[C@@H](NC(C)=O)CC2 [COLCHICINE]	–	11	11.4	3000	–	–	125
COc1cc(C(=O)n2c(C)cc3cc(N(C)C)ccc32)cc(OC)c1OC	52	41	42	1500	72	89	38
COc1ccc(/C=C\c2cc(OC)c(OC)c(OC)c2)cc1O [COMBRETASTATIN A4]	2.8	5.6	2.2	–	85	93	–
COc1cc(C(=O)n2ccc3cc(C=O)ccc32)cc(OC)c1OC	> 5000	> 5000	> 5000	–	–	–	> 5000

Continued, in another order:

IC50 (NCI-H460) [nM]	IC50 (MKN-45) [nM]	IC50 (KB) [nM]	IC50 [2] [nM]	inhibition [3] [%]	inhibition [4] [%]	Structure (SMILES)	IC50 [1] [nM]
198	101	230	–	–	–	CCOC(=O)c1cc2cc(OC)ccc2n1C(=O)c1cc(OC)c(OC)c(OC)c1	185
353	314	371	–	–	–	COc1cc(C(=O)n2ccc3cc(C)ccc32)cc(OC)c1OC	400
> 5000	> 5000	> 5000	–	–	–	COC(=O)c1ccc2c(ccn2C(=O)c2cc(OC)c(OC)c(OC)c2)c1	5000
98	53	89	2600	27	55	COc1ccc2c(c1)CCN2C(=O)c1cc(OC)c(OC)c(OC)c1	84
> 5000	> 5000	> 5000	–	–	–	COc1cc(C(=O)n2ccc3cc(CO)ccc32)cc(OC)c1OC	> 5000
334	156	345	–	–	–	COc1cc(C(=O)n2c(C)cc3cc(N)ccc32)cc(OC)c1OC	312
> 5000	> 5000	> 5000	–	–	–	COc1cc(C(=O)n2ccc3cc(CN(C)C)ccc32)cc(OC)c1OC	> 5000
> 5000	> 5000	> 5000	–	–	–	COc1ccc(NC(=O)c2cc(OC)c(OC)c(OC)c2)cc1	> 5000
652	395	596	> 5000	–	–	COc1ccc2c(c1)CCCN2C(=O)c1cc(OC)c(OC)c(OC)c1	586
0.5	0.6	0.3	600	94	97	COc1cc(C(=O)n2c(C)cc3c(O)c(OC)ccc32)cc(OC)c1OC	0.3
